Patent US20160102058A1, “FLUORO-PERHEXILINE COMPOUNDS AND THEIR THERAPEUTIC USE” (THE UNIVERSITY COURT OF THE UNIVERSITY OF ABERDEEN, priority 2013, published 2016)
Like-named read-outs stand apart in the source and are kept apart here.

Tests used:
[1] = Rat oral pharmacokinetics, plasma and myocardium; type: in vivo, male Sprague-Dawley rats; settings: for concentration at 1 h / concentration at 8 h: male, Sprague-Dawley, 10 mg/kg oral
Description: (§1) Absorption, distribution and metabolic stability were studied using an in vivo pharmacokinetics assay. Drug levels were assessed using LC/MS-MS.
(§2) Healthy male BALB/c mice (8-12 weeks old) weighing between 25 and 35 g, or Sprague-Dawley rats weighing between 250 and 300 g were procured from In-vivo Bioscience Bangalore, India. Three mice were housed in each cage. Temperature and humidity were maintained at 22±3° C. and 40-70%, respectively and illumination was controlled to give a sequence of 12 h light and 12 h dark cycle. Temperature and humidity were recorded by auto-controlled data logger system. All of the animals were provided laboratory rodent diet (Vetcare India Pvt. Ltd, Bengaluru) after the drug administration. Reverse osmosis water treated with ultraviolet light was provided ad libitum.
(§3) FPER-001 and perhexiline samples were freshly prepared each day before administration. The weighed quantity (36.5 mg) of FPER-001 for p.o. dosing was added into a mortar. […] The formulation was sonicated for 2 min to obtain a homogenous suspension.
(§4) Blood samples (approximately 60 μL) were collected from retro-orbital plexus of three mice at each time point (1, 4, 8, 24, 48, 72, 96, 120, 144, and 168 h) or of three rats at each time point (0.25, 0.5, 1, 2, 4, 8, 24, 25, 48, 72 and 73 h). Samples were collected into labeled micro-tubes, containing K2EDTA solution (20% K2EDTA solution) as an anticoagulant. Plasma was immediately harvested from the blood by centrifugation at 4000 rpm for 10 min at 4±2° C. and stored below −70° C. until bioanalysis. Immediately after collection of blood, myocardium samples were collected from each mouse at 1, 4, 8, 24, 48, 72, 96, 120, 144 and 168 h, or from each rat at 1, 8, 25 and 73 h. Myocardium samples were homogenized using ice-cold phosphate buffer saline (pH 7.4) and homogenates were stored below −70° C. until analysis. Total homogenate volume was five times the myocardium weight in mice, and three times the myocardium weight in rats.
(§5) The extraction procedures for plasma/myocardium samples and the spiked plasma calibration standards/quality control samples were identical.
(§6) A 25 μL of study sample or spiked calibration standard was added to individual pre-labeled micro-centrifuge tubes followed by 100 μL of internal standard prepared in acetonitrile (Glipizide 500 ng/mL) was added except for the blank, where 100 μL of acetonitrile was added. Samples were vortexed for 5 min. Samples were centrifuged for 10 min at a speed of 4000 rpm at 4° C. Following centrifugation, 100 μL of clear supernatant was transferred in 96-well plates and analysed using LC-MS/MS.
(§7) HPLC and MS conditions were as follows:
(§8) Non-Compartmental-Analysis tool of Phoenix WinNonlin® (Version 6.3) was used to assess the pharmacokinetic parameters. Peak plasma concentrations (Cmax) and time for the peak plasma concentrations (Tmax) were the observed values. The areas under the concentration time curve (AUClast and AUCinf) were calculated by linear trapezoidal rule. The terminal elimination rate constant (ke) was determined by regression analysis of the linear terminal portion of the log plasma concentration-time curve.
The oral absorption, distribution, and stability of FPER-001 and perhexiline were compared in the rat model as described above. Concentration was investigated for both plasma and myocardia in male Sprague-Dawley rats using an LC/MS/MS detection system as described above.

[2] = Mouse oral pharmacokinetics, plasma and myocardium; type: in vivo, male BALB/c mice; settings: for AUC(0-t) / Cmax: male, BALB/c, 10 mg/kg oral gavage
Description: as §1, §2
as §3, with “(11.19” for “(36.5”, “suspension. Thirty mice were administered with the oral formulation at 10 mg/kg dose through oral gavage using a 22-G oral feeding needle. The dosing volume administered was 10 mL/kg.” for “suspension.”
as §4, §5, §6, §7, §8
The oral absorption, distribution, and stability of FPER-001 and perhexiline were compared in the mouse model as described above. Maximum concentration (Cmax) and area under the curve (AUC) were investigated for both plasma and myocardia in male BALB/c mice, following 10 mg/kg oral gavage of FPER-001 or perhexiline, using an LC/MS/MS detection system as described above.

CPT-1 = target: T1, CPT-1 (Rattus norvegicus, UniProt Q63704); settings: rat cardiac mitochondria; cited from earlier work
T1 construct: host or cells: rat cardiac mitochondria
T1 sequence (Q63704 1-772): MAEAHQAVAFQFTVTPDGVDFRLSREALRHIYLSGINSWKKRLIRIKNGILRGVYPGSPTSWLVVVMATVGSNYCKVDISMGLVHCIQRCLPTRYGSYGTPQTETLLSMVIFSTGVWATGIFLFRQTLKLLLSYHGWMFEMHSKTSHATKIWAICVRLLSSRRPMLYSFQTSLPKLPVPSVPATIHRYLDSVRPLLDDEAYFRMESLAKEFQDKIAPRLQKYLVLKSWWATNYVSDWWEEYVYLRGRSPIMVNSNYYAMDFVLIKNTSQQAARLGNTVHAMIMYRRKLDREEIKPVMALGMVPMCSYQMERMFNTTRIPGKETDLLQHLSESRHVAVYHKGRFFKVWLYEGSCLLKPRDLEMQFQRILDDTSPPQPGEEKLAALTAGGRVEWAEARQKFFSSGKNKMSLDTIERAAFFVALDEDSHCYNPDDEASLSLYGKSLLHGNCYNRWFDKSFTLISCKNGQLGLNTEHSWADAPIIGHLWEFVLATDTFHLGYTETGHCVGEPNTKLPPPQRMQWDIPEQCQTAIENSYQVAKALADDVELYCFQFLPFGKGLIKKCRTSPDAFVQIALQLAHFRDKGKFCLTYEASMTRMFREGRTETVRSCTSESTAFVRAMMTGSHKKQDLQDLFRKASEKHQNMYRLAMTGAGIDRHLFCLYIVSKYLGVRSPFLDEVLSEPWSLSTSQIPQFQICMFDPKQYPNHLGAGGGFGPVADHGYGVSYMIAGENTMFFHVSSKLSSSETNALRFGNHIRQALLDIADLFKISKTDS

[3] = elderly patients with aortic stenosis unsuitable for valve replacement; cited from earlier work
hepatocytes = settings: cited from earlier work
[4] = in comparison with nitroglycerin; cited from earlier work
CPT-2 = settings: read-out: inhibition of CPT-2; cited from earlier work
[5] = myocardium, 1 h, read-out: Conc., myocardium, 1 h
[6] = myocardium, 8 h, read-out: Conc., myocardium, 8 h
[7] = plasma, 1 h, read-out: Conc., plasma, 1 h
[8] = plasma, 8 h, read-out: Conc., plasma, 8 h
[9] = myocardium, read-out: AUC 0-24, myocardium
[10] = myocardium, read-out: Cmax, myocardium
[11] = plasma, read-out: AUC 0-24, plasma

## FC1(F)CCC(C(CC2CCCCN2)C2CCCCC2)CC1 (mixture of isomers) [FPER-001, 2-(2-Cyclohexyl-2-(4,4-difluorocyclohexyl)ethyl)piperidine]
[1]; [5]
  concentration at 1 h: 5910 ng/mL
[1]; [6]
  concentration at 8 h: 1290 ng/mL
[1]; [7]
  concentration at 1 h: 386 ng/mL
[1]; [8]
  concentration at 8 h: 179 ng/mL
[1]; oral dosing, myocardium, 1 h
  drug concentration versus perhexiline, myocardium, 1 h: ~3 fold
[1]; oral dosing, myocardium, 8 h
  drug concentration versus perhexiline, myocardium, 8 h: ~3.5 fold
[1]; oral dosing, plasma, 1 h
  drug concentration versus perhexiline, plasma, 1 h: ~4 fold
[1]; oral dosing, plasma, 8 h
  drug concentration versus perhexiline, plasma, 8 h: ~6 fold
[2]; [9]
  AUC(0-t): 32400 ng·h/mL
[2]; [10]
  Cmax: 1680 ng/mL
[2]; [11]
  AUC(0-t): 3730 ng·h/mL
[2]; plasma, read-out: Cmax, plasma
  Cmax: 347 ng/mL
[2]; oral dosing, myocardium
  drug exposure versus perhexiline, myocardium: ~18 fold
  maximum drug concentration versus perhexiline, myocardium: ~2.5 fold
[2]; oral dosing, plasma
  drug exposure versus perhexiline, plasma: ~11 fold
  maximum drug concentration versus perhexiline, plasma: ~3 fold

## C1CCC(C(CC2CCCCN2)C2CCCCC2)CC1 (centres unmarked) [Perhexiline, 2-(2,2-dicyclohexylethyl)piperidine]
CPT-1
  IC50: 77 µM
[3]
  patients with clear symptomatic improvement: 13 out of 15
[1]; [5]
  concentration at 1 h: 1900 ng/mL
[1]; [6]
  concentration at 8 h: 361 ng/mL
[1]; [7]
  concentration at 1 h: 99.9 ng/mL
[1]; [8]
  concentration at 8 h: 31.4 ng/mL
hepatocytes
  inhibition of fatty acid oxidation in hepatocytes: 22 µM
[2]; [9]
  AUC(0-t): 1830 ng·h/mL
[2]; [10]
  Cmax: 665 ng/mL
[2]; [11]
  AUC(0-t): 350 ng·h/mL
[2]; plasma, read-out: Cmax, plasma
  Cmax: 116 ng/mL
[4]
  reduction in the symptoms of angina: greater than 50%
CPT-2
  IC50: 79 µM
